A short description of data set [1]: In vitro sorption-desorption properties of moisturizers (weight increase vs relative atmospheric humidity). It counts as physicochemical. As to conditions: 24 h each; for ability to absorb water as the atmospheric humidity increases: 20% to 80% r.h. in 10% stages; for ability to store/hold the absorbed water as the atmospheric humidity decreases (hysteresis behavior): 80% r.h. reduced in 10% stages. As for the experimental part: In order to determine the in vitro sorption-desorption properties of moisturizers, these were firstly dried overnight at 80° C. and 0% relative humidity (r.h.) and then cooled to room temperature in a desiccator. 4-5 g of the moisturizer substance were then placed into a Petri dish and stored for 24 h at 20% rh. The weight increase was recorded and the atmospheric humidity was then increased by 10%. After 24 h, the weight of the moisturizer was monitored again. This was repeated in stages to an atmospheric humidity of 80%. The atmospheric humidity was then reduced again every 24 h in 10% stages and the weight decrease was recorded.

The subject of data set [2] is skin. Put plainly: Corneometry, skin moisture before and after single application of test formulation. It counts as in vivo, subjects. As to conditions: single application in O/W cream, contact time two hours; concentration as in 10% active ingredient combination 1. As to the method: Corneometry is a noninvasive method which permits conclusions relating to the skin moisture on the basis of changes in the physical parameters within the stratum corneum. In practice, 12 to 15 subjects are recruited whose skin moisture is measured before and after single application of the test formulations using a HM99 corneometer (Courage & Khazaka, Cologne, Germany) according to the manufacturer's instructions.
After climatization of the subjects over 15 minutes under defined conditions of 22° C. and 55% relative humidity, the skin hydration is determined corneometrically and afterwards 50 mg of the test formulation are applied to a skin area each with a diameter of 2.5 cm, and after […] any residues of the formulation are removed.
After a contact time of two hours, the skin hydration is measured again following climatization of 15 minutes (22° C., 55% rel. humidity). An increase of the relative corneometer units CU correlates directly with improved skin hydration.
The concentrations of the individual substances were chosen so that they correspond to the concentration in 10% active ingredient combination 1.

SMILES strings stand for the structures.

Regarding `OCC(O)CO` [glycerol, 1,2,3-propanetriol, reference compound], in data set [1], the “ability to absorb water as the atmospheric humidity increases” value was “absorb the largest possible amounts of water” and the “ability to store/hold the absorbed water as the atmospheric humidity decreases (hysteresis behavior)” value is “not able to do”.
As to `NC(N)=O` [urea, Urea], the “ΔCU, increase in the relative corneometer units compared with the blank formulation” value in data set [2] came to 3.6 CU. In addition, in data set [1], the “ability to absorb water as the atmospheric humidity increases” value is “very good ability to absorb water” and the “ability to store/hold the absorbed water as the atmospheric humidity decreases (hysteresis behavior)” value was “able to hold onto the absorbed water”.
In the case of `CC(O)C(=O)[O-].[K+]` (stereo not drawn) [potassium lactate, Potassium lactate], the “ΔCU, increase in the relative corneometer units compared with the blank formulation” value in data set [2] is on record as 1.6 CU.
Regarding `C[N+](C)(C)CC(=O)[O-]` [trimethylglycine, Trimethylglycine], the “ΔCU, increase in the relative corneometer units compared with the blank formulation” value in data set [2] is reported as 3.2 CU. Moreover, in data set [1], the “ability to absorb water as the atmospheric humidity increases” value is recorded as “very good ability to absorb water” and the “ability to store/hold the absorbed water as the atmospheric humidity decreases (hysteresis behavior)” value was “able to hold onto the absorbed water”.
